Assay results: a melting point compilation (Tetko et al.; mined from patent text by program, amines drawn as free bases though some values may be those of a salt)

| Compound | melting point [°C] |
| --- | --- |
| Nc1cc(C(=O)c2cc3ccccc3o2)ccc1Cl | 137 |
| CSc1ccc(-c2coc3ccc(C(=O)NN)nc23)cc1 | 240 to 241 |
| CC(C)c1c(C=CC2CC(O)CC(O)O2)n(-c2ccc(Cl)cc2)c(=O)c2ccccc12 (mixture of isomers) | 181 to 185 |
| Cc1coc2c1C(=O)CC(c1ccc(F)cc1F)C2 (stereo not drawn) | 101 to 102 |
| COc1ccc(Sc2nc(-c3ccc(OC)cc3)cnc2N)cc1 | 149 to 151 |
| CCOC(=O)C12CCNC(=O)CC1COC2=O (stereo not drawn) | 137 to 138 |
| CC(C)(C)c1cc(C2=NOC(CC(=O)Nc3ccc([N+](=O)[O-])cc3)C2)cc(C(C)(C)C)c1O (stereo not drawn) | 149 to 151 |
| CN1CC(CCCl)Oc2ccc(F)cc2C1=S (stereo not drawn) | 135 to 137 |
| O=C1c2ccccc2C(=O)N1Cc1noc(-c2ncn3c2[C@@H]2CCN2C(=O)c2c(Cl)cccc2-3)n1 | 189 to 192 |
| CC(C)NCc1ccc(Cn2ccc(OCc3ccc(F)cc3F)c(Cl)c2=O)cc1 | 146 to 151 |
| O=c1ccc(C(c2ccc(Cl)cc2)c2ccc(Cl)cc2)c[nH]1 | 211 to 215 |
| COc1cccc(C(c2cccc(OC)c2)C(Nc2nc(OC)cc(OC)n2)C(=O)O)c1 (stereo not drawn) | 58 to 66 |
| O=C1CCC(N2Cc3cc(CNC(=O)Nc4ccc(F)cc4)ccc3C2=O)C(=O)N1 (stereo not drawn) | 262 to 264 |
| CNS(=O)(=O)Cc1ccc2[nH]cc(CCCN3C(=O)c4ccccc4C3=O)c2c1 | 58 to 66 |
| COC(=O)c1ccc(-c2ccc3nc(OC)ccc3c2)cc1 | 158 to 161 |
| CN(C)C=Cc1c(N)cc([N+](=O)[O-])cc1[N+](=O)[O-] | 105 to 107 |
| [N-]=[N+]=NCn1cc(Cl)c(-c2cc(Cl)cc(Cl)c2)n1 | 74 |

| Compound | melting point [°C] |
| --- | --- |
| O=C(SCCC(=O)N1C(C(=O)NO)CSC1c1ccccc1O)c1ccccc1 (stereo not drawn) | 105 to 110 |
| O=S(=O)(c1ccc(Cl)cc1)c1ccc(-c2ccc(O)cc2)cc1 | 268 to 270 |
| NNC(=O)CCc1cccc(C(F)(F)F)c1 | 80 to 81 |
| CCOC(=O)c1cc(NCc2ccccc2)c(Nc2cccc(OC)c2)c(S(N)(=O)=O)c1 | 149 to 152 |
| O=C(O)c1ccsc1-c1sccc1C(=O)O | 194 to 198 |
| COc1cccc(C23CN(C)CC2CC32OCC(C)(C)CO2)c1 (stereo not drawn) | 132 to 135 |
| CC1(C)C(=O)Oc2ccc(Br)cc21 | 55 to 56 |
| Fc1ccccc1COc1cccnc1NC(=S)Nc1ccc(Cl)cc1 | 141 |
| COc1ccc(N2CCN(c3ccc(OC)nc3-c3ccc(N(C)C)cc3)C(C)C2)cc1 (stereo not drawn) | 140 to 148 |
| Cc1cccc(-c2nc3ccc(Cl)nn3c2-c2ccnc(NC3CCCCC3)c2)c1 | 191 to 192 |
| COc1ccc(CCN2CCC(n3ccc4ccc(CNC(C)=O)cc43)CC2)cc1 | 101 to 102 |
| CCON=Cc1c(S(C)(=O)=O)ccc(C(=O)C2C(=O)CC(C)(C)CC2=O)c1Cl | 156 to 157 |
| COc1cccc(-c2cncc(OC3SCC(O)C(O)C3O)c2)c1 (stereo not drawn) | 200 |
| O=C(O)C(Cc1ccc(O)cc1)NC(=O)C(CS)C(F)(F)F (stereo not drawn) | 184 to 187 |
| CC(C)(C)OOC(C)(CCC(=O)NNC(=O)c1ccccc1)OOC(C)(C)C | 147 to 149 |
| CCOC(=O)c1ccc(-c2ccnc(Nc3cc(OC)c(OC)c(OC)c3)n2)cc1 | 181 to 182 |
| C=CCNc1nc(NC(=O)Nc2ccccc2OC)nc(N(CCC(=O)O)Cc2ccc(Cl)c(Cl)c2)n1 | 201 |

More lines, now with the values ahead:

| melting point [°C] | Compound |
| --- | --- |
| 308 to 312 | CC1=NC=CC(C)(c2c(F)cc3c(=O)c(C(=O)O)cn4c3c2OCC4C)C1 (stereo not drawn) |
| 101 to 103 | N#Cc1cccc(NC(=O)CN2CCC(Cc3ccc(F)cc3)CC2)c1 |
| 153 to 158 | COc1ccc(C=C2NC(=O)NC2=O)cc1OC |
| 134 to 137 | CCOC(=O)Cc1nn(Cc2ccc(Cl)c(Cl)c2)c(=O)c2c(C)cccc12 |
| 128 to 130 | C[C@H]1O[C@@H](C(Cl)(Cl)Cl)OC(=O)[C@@H]1C |
| 215 | CSc1nc2c(c(=O)[nH]1)CC2 |
| 112 to 113 | COc1c([N+](=O)[O-])cc(C#N)c(F)c1O |
| 279 | On1nnc2ccc(C3CCCc4cncn43)cc21 (stereo not drawn) |
| 96 to 96.5 | COc1ccc(C(O)CCCC(=O)Nc2ccccc2)cc1 (stereo not drawn) |
| 178 to 179 | COc1ccc(C(O)COc2ccc(C(=O)O)c(O)c2)cc1C12CC3CC(CC(C3)C1)C2 (stereo not drawn) |
| 66 to 68 | COC(=O)C(O)c1cc2c(cc1Cl)OCO2 (stereo not drawn) |
| 203 to 204 | O=C(O)CCCCCCCn1cnc(-c2ccc(O)cc2)c1-c1ccc(O)cc1 |
| 129 to 130 | CCOP(=O)(COc1ccc(-c2c3ccccc3cc3sc4ccccc4c23)cc1)OCC |
| 192 to 193 | Cc1ccc(NC(=O)c2ccc(CN3CCN(C)CC3)c(C(F)(F)F)c2)cc1NC(=O)N(C)c1cc(N)ncn1 |
| 140 to 142 | Nc1cnccc1CCCOc1cccnc1Oc1cccc(Cl)c1 |
| 152 to 154 | Oc1ccc(-c2cc3cc(F)cc(F)c3o2)cc1 |
| 82 to 84 | CCN(CC)CCOCCc1ccc2sc(C(N)=O)cc2c1 |
| 123 | CCCCC(=O)N(Cc1ccc(Br)cc1)[C@H](C(=O)O)C(C)C |
| 92 to 96 | CC(C)c1nsc(N=C(Br)N(C)C)c1C#N |
| 102 to 104 | CCOC(=O)Nc1c(C)c(C)c2c(c1C)CC(C)(C)O2 |

| melting point [°C] | Compound |
| --- | --- |
| 270 to 272 | Nc1ncnc2c1nc(O)n2Cc1ccc(F)cc1 |
| 74 to 76 | S=C=NCc1cc(-c2ccc(Cl)cc2)no1 |
| > 260 | CNC(=O)CCn1cnc2c(N)nc3ccccc3c21 |
| 172 | COC(=O)C=C(Nc1ccc2[nH]c(=O)oc2c1)C(=O)OC |
| 197 to 199 | O=C(NCc1c(Cl)cccc1Oc1ccccc1)C1CCc2[nH]cnc2C1 (stereo not drawn) |
| 65 to 68 | C#CCc1nc(-c2ccc(C)cc2)oc1C |
| 91 to 93 | OCc1cc2sccc2s1 |
| 120 | CS(=O)(=O)c1nnc(-c2ccco2)s1 |
| 101 to 103 | CCOC(=O)C1=C(O)c2cc3ccccc3n2CC1 |
| 106 to 115 | COc1ccc2c(c1)C(c1ccc(OCCN(C(C)C)C(C)C)cc1)c1c-2ccc2ccccc12 (stereo not drawn) |
| 102 to 104 | Cc1cccc(/C=C/c2nc(COc3ccc(CCCCc4c[nH]c(CC(O)CO)n4)cc3)co2)c1 (stereo not drawn) |
| 240 to 242 | CCS(=O)(=O)c1nc2c(cc1F)c(=O)c(C(=O)O)cn2C1CC1 |
| 156 | CCN(CC)CCN(CCN1CCCCC1)c1ccc(-c2nc3ccc(Cl)cc3[nH]2)cc1 |
| 247 to 249 | CC(C)c1ccc2nc3ccc(C(=O)NCCCCc4cccnc4)cc3c(=O)n2c1 |
| 154 to 156 | O=C(O)C[C@H](NC(=O)/C=C/C(=O)c1ccccc1)C(=O)O |
| 174 to 175 | CC(=O)N(c1cccc(Br)c1)c1ncnc2ccc(N3C(=O)C=CC3=O)cc12 |
| 154 to 156 | Nc1ccc(Cc2ccc(C3(c4ccc(Cc5ccc(N)cc5)cc4)CCCCC3)cc2)cc1 |
| 146 to 148 | CON(c1ccc([N+](=O)[O-])cc1[N+](=O)[O-])S(=O)(=O)c1ccc(C)cc1 |
| 165 | COC(=O)/C(=C/c1ccc(OCCc2nc(-c3ccccc3)oc2C)c2ccsc12)OC |
